The numbers were not newly measured in patent US9585955B2 (priority 2005, dated 2017), which cites them from elsewhere.

The structures appear in SMILES notation.

The conditions of this data set: 20° C. and 2 atm pressure.

As to `[N-]=[N+]=O` [Nitrous oxide], the “volume of water in which one liter of the gas dissolves” value was 1.5 L.
